In PMC7136958, “Targeting the pregnane X receptor using microbial metabolite mimicry” (EMBO Molecular Medicine, 2020):
≈ marks a conversion by molar mass, not a printed value. Where “and” joins values, the source holds several entries; their conditions need not be identical. Identical values can stand only once.

How the values were obtained:
JNK2 = JNK2 (Homo sapiens, UniProt P45984); assay: KINOMEscan select kinase screen; assay type: binding; settings: two experiments
Method: Kinase Assays. The kinase inhibition assays were conducted by DiscoverX on a platform assay by Ambit BioSciences as described previously 16,17. FKK6 was screened at a single concentration of 10 μM in duplicate. The scanMAXSM assay panel measures 468 kinases
(https://www.discoverx.com/services/drug-discovery-development-services/kinase-profiling/kinomescan/scanmax). The assays measure a compound’s ability to inhibit binding of a canonical ligand substrate, with 0% activity of control corresponding to full inhibition and 100% activity of control to no inhibition. […]

PKAC-alpha = PKAC-alpha (Homo sapiens, UniProt P17612); assay: KINOMEscan select kinase screen; assay type: binding; settings: two experiments
Method: (§1) Kinase Assays. The kinase inhibition assays were conducted by DiscoverX on a platform assay by Ambit BioSciences as described previously 16,17. FKK6 was screened at a single concentration of 10 […]
(§2) The assays measure a compound’s ability to inhibit binding of a canonical ligand substrate, with 0% activity of control corresponding to full inhibition and 100% activity of control to no inhibition. […]

PKAC-beta = PKAC-beta (Homo sapiens, UniProt P22694); assay: KINOMEscan select kinase screen; assay type: binding; settings: two experiments
Method: as §1, §2

NF-κB = assay: TNF-α-induced NF-κB reporter assay in LS174T PXR-KO cells; settings: for NFkB NanoLuc luminescence, aver / NFkB %max: LS174T PXR-KO, EXP3; for NFkB %max: TNFa 5 ng/ml = 100
Excerpt: In early passage PXR‐KO cells, we used PXR and NF‐κB reporter‐co‐transfected and NF‐κB reporter‐transfected PXR‐KO cell line.
CRISPR/Cas9‐mediated knockout cells were generated by Synthego Corporation (Redwood City, CA, USA). Briefly, cells were first tested negative for mycoplasma. Guide RNA was selected for high activity, specificity, and activity to create premature stop codons through frameshift mutations in the coding region via insertions and/or deletions (Indels) within exon 2 of the gene encoding human PXR (NR1I2 transcript ID ENST00000337940). […] To generate these cells, ribonucleoproteins (RNPs) containing the Cas9 protein and synthetic chemically modified sgRNA (Synthego) were electroporated into the cells using Synthego's optimized protocol. Editing efficiency is assessed upon recovery, 48 h post‐electroporation. Genomic DNA is extracted from a portion of the cells, PCR‐amplified, and sequenced using Sanger sequencing. The resulting chromatograms are processed using Synthego Inference of CRISPR Edits software (ice.synthego.com).

pxr -/- mice = assay: DSS-induced acute colitis in pxr -/- mice; assay type: in vivo, mouse
Method: For these studies, 7‐ to 8‐week‐old female (DeVoss & Diehl, 2014) hPXR (mice expressing the human PXR gene) and pxr ^−/− mice (C57BL/6 background) were bred and each genotype was separated into two treatment groups using a random allocation method via coin toss—(i) n = 3 control (0.8% DMSO in 100 μl drinking water) and (ii) n = 3 FKK6 (200 μM (0.4 mg/kg/day) in 0.8% DMSO in 100 μl drinking water) administered once per day via oral gavage, and via intrarectal gavage for a total of 10 consecutive days The dose was chosen based on the extrapolation of the total dose delivered over 10 days to mice (~ 4 mg/kg), which is equivalent to that delivered to mice for determining target gene expression over 3–5 doses (3–5 mg/kg). […] Fecal pellets were collected prior to the initiation of the treatment protocol. All mice were starved overnight (12 h) to allow for smooth intrarectal delivery; however, the mice were allowed to feed ad libitum during the day. After 10 days, the mice were sacrificed and organs/tissues/feces harvested for further study. Prior to necropsy, mice were administered FITC‐dextran, and mouse serum was collected for the FITC‐dextran assay as previously described (Vetizou et al, 2015). The experimenter was not blinded to treatment allocation; however, the pathologist (KS) evaluating histologic scores was blinded to treatment allocation. […]

[1] = Solubility of FKK6 in 10% DMSO; assay type: physicochemical; settings: aqueous, aqueous with cosolvent or surfactant or cyclodextrin, room temperature, read-out: maximal solubility (saturation concentration)
Method: FKK6 was solubilized to saturation concentrations (~ 500 μM) at room temperature in 10% DMSO (DMSO maximum tolerated dose in mice is ~ 2.5 g/kg/day for 35 consecutive days) (Caujolle et al, 1967a; Brayton, 1986).

Chain of JNK2 (P45984 whole entry): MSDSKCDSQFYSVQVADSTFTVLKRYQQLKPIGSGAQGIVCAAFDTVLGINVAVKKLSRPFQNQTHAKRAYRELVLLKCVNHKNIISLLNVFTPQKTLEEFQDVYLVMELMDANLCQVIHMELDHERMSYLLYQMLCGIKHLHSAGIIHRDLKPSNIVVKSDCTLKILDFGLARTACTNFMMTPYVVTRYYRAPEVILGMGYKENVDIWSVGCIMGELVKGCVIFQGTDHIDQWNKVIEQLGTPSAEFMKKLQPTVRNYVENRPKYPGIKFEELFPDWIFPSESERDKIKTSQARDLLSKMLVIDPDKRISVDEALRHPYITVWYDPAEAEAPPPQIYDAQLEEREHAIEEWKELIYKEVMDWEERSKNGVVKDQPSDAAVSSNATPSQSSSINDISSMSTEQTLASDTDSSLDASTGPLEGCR

Q: For O=C(c1ccncc1)c1cc2ccccc2n1S(=O)(=O)c1ccccc1 [FKK5, (1-(phenylsulfonyl)-1H-indol-2-yl)(pyridin-4-yl)methanone], which “%Ctrl” value (JNK2; 10000 nM, 10 µM) is on record?
A: Its value is 88 %Ctrl.

Q: What about the remaining binding at 10 µM (JNK2; 10000 nM, read-out: %Ctrl) of the same compound?
A: The remaining binding at 10 µM was 95%.

Q: And the “%Ctrl” value (JNK2; 25000 nM, 25 µM)?
A: The value was 80 %Ctrl.

Q: And the remaining binding at 25 µM (JNK2; 25000 nM, read-out: %Ctrl)?
A: The remaining binding at 25 µM was 74%.

Q: And the remaining binding at 10 µM (PKAC-alpha; 10000 nM, read-out: %Ctrl)?
A: Its remaining binding at 10 µM is 100%.

Q: And the “%Ctrl” value (PKAC-alpha; 25000 nM, 25 µM)?
A: Its value is 95 %Ctrl.

Q: And the remaining binding at 25 µM (PKAC-alpha; 25000 nM, read-out: %Ctrl)?
A: The remaining binding at 25 µM was 85%.

Q: And the “%Ctrl” value (PKAC-beta; 10000 nM, 10 µM)?
A: Its value is 100 %Ctrl and 57 %Ctrl.

Q: What about the “%Ctrl” value (PKAC-beta; 25000 nM, 25 µM) of the same compound?
A: The value was 92 %Ctrl and 48 %Ctrl.

Q: For C#CCC(O)(c1ccncc1)c1cc2ccccc2n1S(=O)(=O)c1ccccc1 (stereo not shown) [FKK6], which “NFkB NanoLuc luminescence, aver” value (NF-κB; 1 μM + TNFα 5 ng/ml) is on record?
A: The value was 70912.7.

Q: And the NFkB %max (NF-κB; 1 μM + TNFα 5 ng/ml)?
A: Its NFkB %max is 128.7% and 128.74%.

Q: And the “NFkB NanoLuc luminescence, aver” value (NF-κB; 10 μM + TNFα 5 ng/ml)?
A: Its value is 56963.0.

Q: And the NFkB %max (NF-κB; 10 μM + TNFα 5 ng/ml)?
A: Its NFkB %max is 103.4% and 103.41%.

Q: What about the “NFkB NanoLuc luminescence, aver” value (NF-κB; 25 μM + TNFα 5 ng/ml) of the same compound?
A: The value was 50715.5.

Q: What about the NFkB %max (NF-κB; 25 μM + TNFα 5 ng/ml) of the same compound?
A: Its NFkB %max is 92.1% and 92.07%.

Q: And the NF-κB reporter activity (NF-κB; TNF-exposed PXR-KO cells)?
A: The NF-κB reporter activity was “neither rifampicin nor FKK6 repressed”.

Q: What about the “weight loss, colon length, inflammation score, lipocalin 2, FITC-dextran levels” value (pxr -/- mice; FKK6 200 μM, 10 days) of the same compound?
A: Its value is “did not alter”.

Q: And the “% weight loss from baseline (day 10)” value (pxr -/- mice; pxr -/- mice, DSS colitis, Fig 6a, individual values)?
A: Its value is 24% and 25% and 22%.

Q: What about the solubility [1] of the same compound?
A: Its solubility is roughly 500 µM (≈ 201 µg/mL).
